Holding throughout (experiment): inhibition of tumour cell growth, NCI panel, 48 h
Assay [1] relates to UACC-62.
The subject of assay [2] is UO-31.
Assay [3] has as its system SN12C.
Assay [4] concerns HCT-15.
In assay [5] the test system is CAKI-1.
Assay [6] concerns SF-295.
Assay [7] has as its system NCI-H226.
Assay [8] concerns U-251.
The subject of assay [9] is SF-268.
In assay [10] the test system is DU-145.
The test system of assay [11] is OVCAR-5.
In assay [12] the test system is UACC-257.
Assay [13] deals with TK-10.
Assay [14] has as its system OVCAR-3.
The subject of assay [15] is ACHN.
For assay [16], the system named is MCF7.
The subject of assay [17] is OVCAR-4.
Assay [18] concerns Malme-3M.
In assay [19] the test system is HL-60.
The test system of assay [20] is CCRF-CEM.

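48-hour exposure; five concentrations; linearly interpolated endpoints. Here, GI50 denotes the concentration required for 50% inhibition of growth.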 Calls of active or inactive are those of the source. No stated cut-off is given here; in the data, active = GI50 up to about 1.1 µM and inactive = higher.

For the compound `CCN(CC)CCNC(=O)c1cc2cc(NC(=O)c3cc4cc([N+](=O)[O-])ccc4[nH]3)ccc2[nH]1`, the GI50 in assay [1] is 32 µM (inactive); in [2] it was > 40.5 µM (inactive); in assay [3], > 65.2 µM (inactive); in assay [4], > 100 µM; in assay [5] it was > 35.6 µM (inactive); in assay [6] it was 27.6 µM (inactive). The GI50 in [7] was 56.2 µM (inactive); in assay [8], 1.84 µM (inactive); in assay [9] it was 13.6 µM (inactive); in [10] it was 14.2 µM (inactive); in assay [11] it was 69.7 µM (inactive); in assay [12], 29.4 µM (inactive). Moreover, the GI50 in assay [13] is 14.2 µM (inactive); in assay [14] it was > 40.6 µM (inactive); in [15] it was 35.1 µM (inactive); in assay [16] it was 2.39 µM (inactive); in [17] it was > 50.4 µM (inactive).

`N#C/C(=C/NC(=S)Nc1ccc(S(N)(=O)=O)cc1)C(N)=O`: the GI50 in [1] was > 100 µM (inactive); in assay [3], > 100 µM (inactive); in assay [4], > 100 µM; in [5] it was > 100 µM (inactive); in [6] it was > 100 µM (inactive); in assay [18] it was > 100 µM (inactive). Besides, the GI50 in assay [19] is 43.7 µM (inactive); in assay [8] it was > 100 µM (inactive); in [9], > 100 µM (inactive); in [10], > 100 µM (inactive); in assay [11] it was > 100 µM (inactive); in assay [12] it was > 100 µM (inactive). Besides, the GI50 in assay [13], in [14], in assay [15], in assay [16] and in [17] was > 100 µM (inactive) each time.

As to `CCOC(=O)c1ccc(NC(=O)O/N=C(/Cl)CCl)cc1`, the GI50 in assay [2] is 45 µM (inactive); in assay [3], 84.9 µM (inactive); in assay [4] it was 5.57 µM; in [20], 21.5 µM (inactive); in assay [5], > 100 µM (inactive); in [6] it was 30.8 µM (inactive). For the same compound, the GI50 in assay [18] is 81.1 µM (inactive); in assay [19], 24.2 µM (inactive); in assay [8] it was 39.4 µM (inactive); in assay [9], 47.1 µM (inactive); in [10] it was 65.3 µM (inactive); in [11], 86.7 µM (inactive). Also, the GI50 in assay [12] is 44.6 µM (inactive); in [13], 28.4 µM (inactive); in assay [14], 37.6 µM (inactive); in assay [15] it was 12.6 µM (inactive); in assay [16] it was 34.8 µM (inactive); in assay [17], 71.1 µM (inactive).

For `Cc1nc(O)nc2nc3cc(Cl)cc(Cl)c3c(NC(C)(CO)CO)c12`, the GI50 was 72.3 µM (inactive) in assay [1]; 91 µM (inactive) in [2]; > 100 µM (inactive) in [3]; > 100 µM in [4]; > 100 µM (inactive) in assay [20]; 94.6 µM (inactive) in assay [5]. Besides, the GI50 in assay [6] was 30.3 µM (inactive); in assay [18], > 100 µM (inactive); in assay [7], > 100 µM (inactive); in assay [8], 14.4 µM (inactive); in assay [9], 25.7 µM (inactive); in assay [10] it was 29.2 µM (inactive). In addition, the GI50 was > 100 µM (inactive) in assay [12]; 27.4 µM (inactive) in assay [13]; > 100 µM (inactive) in [14]; 50.5 µM (inactive) in assay [15]; 1.55 µM (inactive) in assay [16]; > 100 µM (inactive) in assay [17].

Regarding `CCOC1OC(COC(=O)C(C)(C)C)C(O)CC1n1cc(C)c(=O)[nH]c1=O` (stereo not drawn), the GI50 was > 100 µM (inactive) in assay [1]; > 100 µM (inactive) in assay [2]; > 100 µM (inactive) in [3]; > 100 µM in [4]; > 100 µM (inactive) in assay [20]; > 100 µM (inactive) in [5]. Further, the GI50 in assay [6], in assay [18], in assay [7], in [8], in assay [9] and in [10] was > 100 µM (inactive) each time. For the same compound, the GI50 in assay [11], in [12], in [13], in [14], in assay [15] and in assay [16] was > 100 µM (inactive) each time. Moreover, the GI50 in [17] was > 100 µM (inactive).

For `Cc1nn(-c2ccccc2)c2nc3ccc(Cl)cc3c(-c3ccccc3)c12`, the GI50 was > 100 µM (inactive) in assay [1]; > 100 µM (inactive) in assay [2]; > 100 µM (inactive) in assay [3]; > 100 µM in assay [4]; > 100 µM (inactive) in assay [20]; > 100 µM (inactive) in assay [6]. The GI50 in [18], in assay [7], in [8], in [9], in assay [10] and in [11] was > 100 µM (inactive) in each case. The GI50 in assay [13], in assay [14], in assay [15], in assay [16] and in assay [17] was > 100 µM (inactive) throughout.

`O=C(Cn1c(-c2ccccc2)cc2ccccc21)N1CCCC1`: the GI50 was > 100 µM (inactive) in assay [1]; > 100 µM (inactive) in assay [2]; > 100 µM (inactive) in assay [3]; > 100 µM in [4]; > 100 µM (inactive) in assay [6]; > 100 µM (inactive) in assay [18]. Also, the GI50 in [7], in assay [9], in assay [10], in assay [11], in assay [12] and in assay [14] was > 100 µM (inactive) throughout. Further, the GI50 in assay [15], in assay [16] and in assay [17] was > 100 µM (inactive) in each case.

On to `CC1CN=C(N(C(=O)Nc2ccccc2)c2ccccc2)S1` (stereo not drawn), for which the GI50 in assay [2] is 38.4 µM (inactive); in assay [3] it was 25.2 µM (inactive); in [4] it was 37.2 µM; in assay [20] it was 23.4 µM (inactive); in assay [5], 27 µM (inactive); in assay [6] it was 37.9 µM (inactive). In addition, the GI50 in assay [18] is 23 µM (inactive); in assay [19] it was 20 µM (inactive); in assay [8], 37.7 µM (inactive); in [9], 20.6 µM (inactive); in assay [10], 53.2 µM (inactive); in assay [11] it was 90.4 µM (inactive). Further, the GI50 is 17.1 µM (inactive) in [12]; 20.6 µM (inactive) in assay [13]; 24.9 µM (inactive) in assay [14]; 37.2 µM (inactive) in assay [15]; 8.99 µM (inactive) in assay [16]; 19.5 µM (inactive) in assay [17].

For `N#C[C@H](C(=O)c1ccccc1F)c1nc2ccccc2[nH]1`, the GI50 was > 100 µM (inactive) in assay [1]; 93.1 µM (inactive) in [2]; > 100 µM (inactive) in assay [3]; > 100 µM in assay [4]; 53 µM (inactive) in assay [20]; > 100 µM (inactive) in assay [5]. The GI50 in [6], in assay [7], in assay [8], in [9], in assay [10] and in [11] was > 100 µM (inactive) in each case. Moreover, the GI50 in assay [12] was > 100 µM (inactive); in assay [13] it was > 100 µM (inactive); in assay [14], > 100 µM (inactive); in assay [15], > 100 µM (inactive); in assay [16], 92 µM (inactive); in assay [17], > 100 µM (inactive).

With `c1ccc2c(c1)CCc1c-2n(CCN2CCCCC2)c2ccccc12`, the GI50 was 14.8 µM (inactive) in assay [1]; 11.4 µM (inactive) in [2]; 17.3 µM (inactive) in assay [3]; 10.6 µM in assay [4]; 15.6 µM (inactive) in assay [20]; 16.6 µM (inactive) in assay [5]. In addition, the GI50 in assay [6] is 16.9 µM (inactive); in [18], 24.7 µM (inactive); in assay [7], 10.9 µM (inactive); in [8] it was 14.3 µM (inactive); in [9] it was 21.2 µM (inactive); in [10], 39.4 µM (inactive). In addition, the GI50 in [11] was 15.5 µM (inactive); in assay [12], 17.2 µM (inactive); in assay [13], 19.1 µM (inactive); in assay [14], 16.6 µM (inactive); in assay [15], 18.7 µM (inactive); in assay [16] it was 15.2 µM (inactive). Moreover, the GI50 in [17] was 18.8 µM (inactive).

As for `COc1cc(OC)c(OC)cc1/C=C/c1nc2ccccc2s1`, the GI50 in assay [2] is 47.2 µM (inactive); in [3] it was > 100 µM (inactive); in assay [4], > 100 µM; in assay [20], > 100 µM (inactive); in assay [6], 67 µM (inactive); in assay [18] it was > 100 µM (inactive). For the same compound, the GI50 in assay [7] is > 100 µM (inactive); in assay [19], 5.52 µM (inactive); in assay [8] it was > 100 µM (inactive); in assay [9] it was > 100 µM (inactive); in assay [10] it was > 100 µM (inactive); in assay [11], > 100 µM (inactive). The GI50 in assay [12] was > 100 µM (inactive); in assay [13] it was 98.2 µM (inactive); in assay [14], > 100 µM (inactive); in assay [15], > 100 µM (inactive); in assay [16], 82.4 µM (inactive).

The record behind these values is ChEMBL document CHEMBL1201862, “PubChem BioAssay data set” (2004).
